Laboratory results from publication PMC7589200, “Identification of Putative Non-Substrate-Based XT-I Inhibitors by Natural Product Library Screening” (Biomolecules, 2020).

Legend:
[1] = test system: normal human dermal fibroblasts (NHDFs); assay: WST-1 cell proliferation assay; type: cell-based; conditions: 48 h
Experimental: Normal human dermal fibroblasts (NHDFs) from a 37- and […] were obtained commercially from Cambrex (Walkerville, United States) and Coriell (New Jersey, United States). The NHDFs were cultured in phenol red-free Dulbecco’s modified Eagle’s medium (DMEM; Thermo Fisher Scientific, Waltham, Massachusetts, United States) supplemented with 10% (v/v) FCS, 4 mM L-glutamine and 100,000 U/L penicillin, 100 mg/L Streptomycin, 0.25 mg/L amphotericin B (PAN Biotech, Aidenbach, Germany) at 37 °C, 5% CO2. The medium was changed twice a week until the cells reached 80% confluency. The NHDFs were subcultured with an expansion ratio of 1:3 using 0.05% trypsin (PAN Biotech, Aidenbach, Germany) and used until the ninth passage.
The tetrazolium salt WST-1 (Roche, Basel, Swiss) was used for the spectrophotometric quantification of cell proliferation in response to various inhibitor concentrations. The cell proliferation assay was carried out according to the manufacturer’s instructions in a 96-well tissue culture plate with 1700 cells per cavity. Based on the inhibition studies, the cells were cultured in fully supplemented DMEM for 24 h then treated with celastrol or amphotericin B for an additional 48 h. The WST-1 reagent was added to the cell culture supernatant 4 h before the end of the treatment. The absorptions at 440 and 590 nm were measured at timepoints 0, 1, 2, 3 and 4 h after the addition of WST-1.

XT-I = biological target: T1, XT-I (Homo sapiens, UniProt Q86Y38); assay: Cellular (extra- and intracellular) XT-I activity of NHDFs by UPLC-ESI-MS/MS XT-I assay; type: cell-based; conditions: for extracellular XT-I activity relative to DMSO control / intracellular XT activity compared to DMSO control: then inhibitor-free media 48 h (96 h)
T1 sequence (Q86Y38 260-959 limits assumed): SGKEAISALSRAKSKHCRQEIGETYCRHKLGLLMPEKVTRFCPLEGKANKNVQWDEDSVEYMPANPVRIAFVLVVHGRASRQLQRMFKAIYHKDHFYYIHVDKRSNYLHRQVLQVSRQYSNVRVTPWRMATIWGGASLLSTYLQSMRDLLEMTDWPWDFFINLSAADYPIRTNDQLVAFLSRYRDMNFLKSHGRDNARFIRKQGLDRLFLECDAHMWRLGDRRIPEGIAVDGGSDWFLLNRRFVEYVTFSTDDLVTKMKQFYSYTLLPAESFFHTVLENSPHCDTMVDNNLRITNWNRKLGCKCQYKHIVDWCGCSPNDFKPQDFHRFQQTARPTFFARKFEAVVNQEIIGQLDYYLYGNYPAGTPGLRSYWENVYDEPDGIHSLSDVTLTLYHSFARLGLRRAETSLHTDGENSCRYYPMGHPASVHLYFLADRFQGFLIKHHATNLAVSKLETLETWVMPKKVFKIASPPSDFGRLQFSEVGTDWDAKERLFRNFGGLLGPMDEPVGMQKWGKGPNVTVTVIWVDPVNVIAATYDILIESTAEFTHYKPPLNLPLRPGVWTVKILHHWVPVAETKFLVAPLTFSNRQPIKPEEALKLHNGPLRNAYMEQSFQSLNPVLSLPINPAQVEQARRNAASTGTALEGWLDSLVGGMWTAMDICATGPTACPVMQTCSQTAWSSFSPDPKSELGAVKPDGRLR
Source text: The measurement of relative XT-I activity among different samples is based on the XT-catalyzed incorporation of xylose from UDP-D-xylose on a modified bikunin-derived peptide after a fixed reaction time. The assay was originally developed for the determination of XT activity in human- or cell-culture-derived samples [13] by ultra-performance liquid chromatography/electrospray ionization tandem mass spectrometry (UPLC/ESI-MS/MS). The UPLC/ESI-MS/MS XT assay was recently modified toward a XT-I selective activity determination in human serum and cell culture samples (unpublished data). The relative intensities of the xylosylated peptide species abundance obtained with the respective m/z ratio were directly proportional to the relative XT-I activity of the sample. The XT-I activity determined is expressed in arbitrary units and normalized to the total protein content per 1 mL sample volume in cell culture approaches. A calibrator probe with a fixed amount of recombinant XT-I enzyme was included in every UPLC-MS/MS XT-I assay for assay comparability across multiple runs. The assay reaction mixture (50 μL) contained 50% (v/v) of the respective XT-I enzyme solution and 50% (v/v) reaction buffer. The final XT-I assay contained 25 mM MES buffer (pH 6.5), 25 mM KF buffer, 5 mM MnCl2, 5 mM MgCl2, 7.0 μM modified acceptor peptide and 30 μM UDP-D-xylose. The sample preparation for UPLC/ESI-MS/MS was performed according to [13]. In brief, after sample incubation at 37 °C for 24 h, the reaction was stopped by heating at 99 °C for 10 min. After centrifugation (10,000× g, 10 min) the supernatant was diluted fivefold with UPLC water for analysis. All cell-based XT-I assays were carried out in three biological and three technical replicates per donor-derived primary cell culture, while the XT-I activity determination for screening or kinetic purposes was carried out at least in technical duplicates.
A former established cell culture model was utilized to investigate the effect of putative XT-I inhibitors on NHDFs. The inhibition studies were carried out with final inhibitor concentrations of 0.5, 1.0, 2.0 or 4.0 μM diluted in fully supplemented DMEM. In brief, unless otherwise stated, NHDFs were cultivated with a low density of 50 cells per mm^2 on a hard tissue culture substrate (100 × 20 mm dish) in fully supplemented DMEM with or without additional TGF-β1 (5 μg/L) for 24 h, promoting their transdifferentiation into proto-myofibroblasts. Thereafter, cells were treated with celastrol or amphotericin B in the presence or absence of TGF-β1 (5 μg/L) for an additional 48 h. Negative controls treated with solvent only were included for every sampling time. The final DMSO content of 0.04% (v/v) was kept constant in all inhibition experiments.
The cell culture supernatant was collected to analyze the extracellular XT-I activity, whereas the same cell culture monolayer was lysed using a fixed amount of 0.75 mL Nonidet P-40 (NP-40)-buffer (50 mM TRIS, 150 mM NaCl, 1% NP-40, pH 7.8) for the analysis of intracellular XT-I activities. After sample centrifugation (10,000× g, 10 min, 4 °C), the supernatant contained the intracellular XT-I protein. The lysates were also used for the BCA assay. The cellular XT-I activities were measured 48 h after inhibitor treatment (48 h) or an additional 48 h after inhibitor removal (96 h).

[2] = 2.0 μM with TGF-β1 (5 μg/L) 48 h
[3] = 1.0 μM with TGF-β1 (5 μg/L) 48 h

Compound | cell proliferation (WST-1) compared to control ([1]; 4.0 μM) | cell proliferation (WST-1) compared to control ([1]; 0.5 to 2.0 μM) | extracellular XT-I activity relative to DMSO control (XT-I; [2]) [fold] | intracellular XT activity compared to DMSO control (XT-I; [2]) | cell proliferation (WST-1) compared to control ([1]; 2.0 μM) | cell proliferation (WST-1) compared to control ([1]; 0.5 and 1.0 μM) | extracellular XT-I activity relative to untreated cells (XT-I; 0.5 μM, 48 h, inhibitor still present in supernatant (Figure S3)) [fold] | extracellular XT-I activity relative to DMSO control (XT-I; [3]) [fold] | intracellular XT activity compared to DMSO control (XT-I; [3]) | intracellular XT activity (XT-I; inhibitor present 48 h (Figure S3 setup, 0.5 μM))
C[C@@H]1[C@H](O)[C@@H](C)/C=C/C=C/C=C/C=C/C=C/C=C/C=C/[C@H](O[C@@H]2O[C@H](C)[C@@H](O)[C@H](N)[C@@H]2O)C[C@@H]2O[C@](O)(C[C@@H](O)C[C@@H](O)[C@H](O)CC[C@@H](O)C[C@@H](O)CC(=O)O[C@H]1C)C[C@H](O)[C@H]2C(=O)O [Compound 17, Amphotericin B] | reduced the proliferation of NHDFs significantly | did not influence cellular proliferation | 0.6 ± 0.03 | did not result in any detectable changes | – | – | – | – | – | –
CC1=C(O)C(=O)C=C2C1=CC=C1[C@@]2(C)CC[C@@]2(C)[C@@H]3C[C@](C)(C(=O)O)CC[C@]3(C)CC[C@]12C [Compound 68, Celastrol] | significantly decreased cell proliferation | – | – | – | significantly decreased cell proliferation | did not influence cellular proliferation | 0.8 ± 0.07 | 0.9 ± 0.06 | did not result in any detectable changes | No intracellular XT activity changes were observed
